IC50 and melting point data for twelve compounds are collected here from US7335674B2, “Benzothiazole-4,7-diones and benzoxazole-4,7-diones with substituents in position 5 or 6 and method for production thereof” (Societe de Conseils de Recherches et d'Applications …, priority 2003, dated 2008).

pIC50: −log10 of the molar value.

Data set [1] concerns Mia-Paca2 (human pancreas cancer cells). The data set can be described thus: Antiproliferative activity, WST1 colorimetric test, Mia-PaCa2. Type of data set: cell-based. The conditions noted are these: MIA PaCa-2, Mia-Paca2, treated 96 hours, up to 10 μM, read-out: IC50 on the cell proliferation of the Mia-Paca2 lines. How it is done: (§1) iii) Characterization of the Antiproliferative Activity:
(§2) By way of example, the effect of a treatment on two human cell lines Mia-Paca2 and DU145 by the compounds of the examples described previously will be studied. The cell lines DU145 (human prostate cancer cells) and Mia-PaCa2 (human pancreas cancer cells) were acquired from the American Tissue Culture Collection (Rockville, Md., USA). The cells placed in 80 μl of Dulbecco's Modified Eagle's medium (Gibco-Brl, Cergy-Pontoise, France) completed with 10% foetal calf serum inactivated by heating (Gibco-Brl, Cergy-Pontoise, France), 50,000 units/l of penicillin and 50 mg/l of streptomycin (Gibco-Brl, 10378-057, Cergy-Pontoise, France), and 2 mM of glutamine (Gibco-Brl, Cergy-Pontoise, France) were seeded on a 96-well plate on day 0. The cells were treated on day 1 for 96 hours with increasing concentrations of each of the compounds to be tested up to 10 μM. At the end of this period, quantification of cell proliferation is evaluated by a colorimetric test based on the cleavage of the tetrazolium salt WST1 by the mitochondrial dehydrogenases in viable cells leading to the formation of formazan (Boehringer Mannheim, Meylan, France). These tests are carried out in duplicate with 8 determinations per concentration tested. For each compound to be tested, the values included in the linear part of the sigmoid were retained for a linear regression analysis and used to estimate the inhibitory concentration IC50. The products are solubilized in dimethylsulphoxide (DMSO) at 10^−2 M and finally used in culture with 0.1% DMSO.
Background: Formazan colour is commonly taken as a measure of viable cells.

Data set [2] relates to DU145 (human prostate cancer cells). The data set can be described thus: Antiproliferative activity, WST1 colorimetric test, DU145. The conditions noted are these: DU-145, treated 96 hours, up to 10 μM, read-out: IC50 on the cell proliferation of the DU-145 lines. Type of data set: cell-based. Here is the method:
as §1, §2

In turn, `Cc1cc(-c2nc3c(o2)C(=O)C(NCCN(C)C)=CC3=O)ccc1Br` [Example 37, 2-(4-bromo-3-methylphenyl)-6-{[2-(dimethylamino)ethyl]amino}-1,3-benzoxazole-4,7-dione] registered a melting point of 165 to 166 °C. Moreover, in data set [1], the pIC50 was at least 5.00. Besides, the pIC50 in data set [2] was at least 5.00.

With `CCc1ccc(-c2nc3c(o2)C(=O)C(NCCN(C)C)=CC3=O)cc1` [Example 38, 6-{[2-(dimethylamino)ethyl]amino}-2-(4-ethylphenyl)-1,3-benzoxazole-4,7-dione], the melting point fell in the range of 151 to 152 °C. In data set [1], the pIC50 was at least 5.00. Also, in data set [2], the pIC50 is at least 5.00.

As to `CN(C)CCNC1=CC(=O)c2nc(-c3ccc(Br)cc3Cl)oc2C1=O` [Example 39, 2-(4-bromo-2-chlorophenyl)-6-{[2-(dimethylamino)ethyl]amino}-1,3-benzoxazole4,7-dione], the melting point fell in the range of 163 to 164 °C. Moreover, the pIC50 in data set [1] was at least 5.00. For the same compound, the pIC50 in data set [2] was at least 5.00.

On to `COc1ccc(-c2nc3c(o2)C(=O)C(NCCN(C)C)=CC3=O)cc1OC` [Example 41, 2-(3,4-dimethoxyphenyl)-6-{[2-(dimethylamino)ethyl]amino}-1,3-benzoxazole-4,7-dione], for which the melting point is 181 to 182 °C. Besides, the pIC50 in data set [1] was at least 5.00. Moreover, the pIC50 in data set [2] is at least 5.00.

Turning to `CN(C)CCNC1=CC(=O)c2nc(Cc3c(Cl)cccc3Cl)oc2C1=O` [Example 42, 2-(2,6-dichlorobenzyl)-6-{[2-(dimethylamino)ethyl]amino}-1,3-benzoxazole4,7-dione], the melting point lay in the range of 172 to 173 °C. In data set [1], the pIC50 was at least 5.00. In data set [2], the pIC50 was at least 5.00.

On to `CN(C)CCNC1=CC(=O)c2nc(Cc3c(F)cccc3Cl)oc2C1=O` [Example 43, 2-(2-chloro-6-fluorobenzyl)-6-{[2-(dimethylamino)ethyl]amino}-1,3-benzoxazole4,7-dione], for which the melting point was 178 to 179 °C. Also, in data set [1], the pIC50 was at least 5.00. Further, the pIC50 in data set [2] was at least 5.00.

`CN(C)CCNC1=CC(=O)c2nc(Cc3cccc4ccccc34)oc2C1=O` [Example 44, 6-{[2-(dimethylamino)ethyl]amino}-2-(1-naphthylmethyl)-1,3-benzoxazole-4,7-dione]: the melting point is 153 to 154 °C. The pIC50 in data set [1] was at least 5.00. The pIC50 in data set [2] is at least 5.00.

Compound `O=C1C=C(NCCN2CCCC2)C(=O)c2oc(-c3ccccc3Br)nc21` [Example 45, 2-(2-bromophenyl)-6-[(2-pyrrolidin-1-ylethyl)amino]-1,3-benzoxazole-4,7-dione] had a melting point of 123 to 124 °C. The pIC50 in data set [1] is at least 5.00. Moreover, the pIC50 in data set [2] was at least 5.00.

The compound `O=C1C=C(NCCN2CCCC2)C(=O)c2oc(-c3cccc(Br)c3)nc21` [Example 46, 2-(3-bromophenyl)-6-[(2-pyrrolidin-1-ylethyl)amino]-1,3-benzoxazole-4,7-dione] showed a melting point of 163 to 164 °C. Further, in data set [1], the pIC50 was at least 5.00. Also, in data set [2], the pIC50 is at least 5.00.

`O=C1C=C(NCCN2CCCC2)C(=O)c2oc(-c3cccc(Cl)c3)nc21` [Example 47, 2-(3-chlorophenyl)-6-[(2-pyrrolidin-1-ylethyl)amino]-1,3-benzoxazole4,7-dione] yielded a melting point of 161 to 162 °C. For the same compound, the pIC50 in data set [1] was at least 5.00. The pIC50 in data set [2] was at least 5.00.

`O=C1C=C(NCCN2CCCC2)C(=O)c2oc(-c3ccc(Br)cc3)nc21` [Example 48, 2-(4-bromophenyl)-6-[(2-pyrrolidin-1-ylethyl)amino]-1,3-benzoxazole-4,7-dione] yielded a melting point of 165 to 166 °C. For the same compound, in data set [1], the pIC50 was at least 5.00. In data set [2], the pIC50 was at least 5.00.

`O=C1C=C(NCCN2CCCC2)C(=O)c2oc(-c3cc(Br)cc(Br)c3)nc21` [Example 49, 2-(3,5-dibromophenyl)-6-[(2-pyrrolidin-1-ylethyl)amino]-1,3-benzoxazole-4,7-dione] yielded a melting point of 202 to 203 °C. For the same compound, the pIC50 in data set [1] was at least 5.00. Further, the pIC50 in data set [2] is at least 5.00.

The term melting point denotes the temperature, or range, at which the solid turns liquid.
